Results on three compounds are retold here after patent publication US6649608B2, “2,4-di(hetero-)arylamino (oxy)-5-substituted pyrimidines as antineoplastic agents” (AstraZeneca AB, priority 2000, dated 2003).

One test has as its target T1, CDK4/Cyclin D1 (Homo sapiens, UniProt P11802).
T1 construct: made in house; host or cells: SF21 insect cells (Spodoptera frugiperda), baculovirus co-infection; vector pVL1393
The experiment in a line: CDK4 Inhibition Assay (SPA, GST-Rb substrate). In kind it is biochemical. The following applies: in vitro kinase assay; read-out: CDK4 inhibitory activity IC50. On the procedure:
The compounds were tested in an in vitro kinase assay in 96 well format using Scintillation Proximity Assay (SPA—obtained from Amersham) for measuring incorporation of [γ-33-P]-Adenosine Triphosphate into a test substrate (GST-Retinoblastoma). In each well was placed the compound to be tested (diluted in DMSO and water to correct concentrations) and in control wells either p16 as an inhibitor control or DMSO as a positive control.
Approximately 0.5 μl of CDK4/Cyclin D1 partially-purified enzyme (amount dependent on enzyme activity) diluted in 25 μl incubation buffer was added to each well then 20 μl of GST-Rb/ATP/ATP33 mixture (containing 0.5 μg GST-Rb and 0.2 μM ATP and 0.14 μCi [γ-33-P]-Adenosine Triphosphate), and the resulting mixture shaken gently, then incubated at room temperature for 60 minutes. […]
The plates were sealed with Topseal-S plate sealers, left for two hours then spun at 2500 rpm, 1124×g., for 5 minutes. The plates were read on a Topcount for 30 seconds per well. […]
E. coli paste was resuspended in 10 ml/g of NETN buffer (50 mM Tris pH 7.5, 120 mM NaCl, 1 mM EDTA, 0.5% v/v NP-40, 1 mM PMSF, 1 ug/ml leupeptin, 1 ug/ml aprotinin and 1 ug/ml pepstatin) and sonicated for 2×45 seconds per 100 ml homogenate. […] The final product was analysed by Sodium Dodeca Sulfate (SDS) PAGE (Polyacrylamide gel) using 8-16% Tris-Glycine gels (Novex, San Diego, USA). […]

Test [1] addresses T2, human Focal Adhesion Kinase (FAK) (Homo sapiens, UniProt Q05397).
T2 construct: FAK (fall length human cDNA described by Andre et al); made in house; host or cells: insect cells (Sf21; printed 'Sf12'), baculovirus, pFastbac 1; cell lysate supernatant used as enzyme stock
Nature of the test: FAK3 Kinase Inhibition Assay (in vitro enzyme ELISA). In kind it is biochemical. The following applies: read-out: FAK inhibitory activity IC50. From the text: This assay determines the ability of a test compound to inhibit tyrosine kinase activity of human Focal Adhesion Kinase (FAK).
DNA encoding FAK is obtained by total gene synthesis (Edwards M, International Biotechnology Lab 5(3), 19-25, 1987) or by cloning. These are then expressed in a suitable expression system to obtain polypeptide with tyrosine kinase activity.
Active FAK protein has been previously expressed in a baculovirus system using a similar N-terminal 6-histidine tag (Protein Expression And Purification, 1996, 7: 12-18). The human FAK cDNA was cloned into the baculovirus transplacement vector, pFastbac 1 (Life Technologies), and the recombinant construct was co-transfected into insect cells (for example Spodoptera frugiperda 21(Sf21)) with viral DNA to prepare recombinant baculovirus (details of the methods for the assembly of recombinant DNA molecules and the preparation and use of recombinant baculovirus can be found in standard texts for example Sambrook et al, 1989, Molecular cloning—A Laboratory Manual, 2nd edition, Cold Spring Harbour Laboratory Press and O'Reilly et al, 1992, Baculovirus Expression Vectors—A Laboratory Manual, W.H. Freeman and Co, New York. Details specific to the use of the pFastbac (‘Bac to Bac’) system are provided in Anderson et al., 1995, FOCUS (Life Technologies Bulletin Magazine), 17, p53.) […]
Background: ELISA stands for enzyme-linked immunosorbent assay.

T2 sequence (Q05397 whole entry): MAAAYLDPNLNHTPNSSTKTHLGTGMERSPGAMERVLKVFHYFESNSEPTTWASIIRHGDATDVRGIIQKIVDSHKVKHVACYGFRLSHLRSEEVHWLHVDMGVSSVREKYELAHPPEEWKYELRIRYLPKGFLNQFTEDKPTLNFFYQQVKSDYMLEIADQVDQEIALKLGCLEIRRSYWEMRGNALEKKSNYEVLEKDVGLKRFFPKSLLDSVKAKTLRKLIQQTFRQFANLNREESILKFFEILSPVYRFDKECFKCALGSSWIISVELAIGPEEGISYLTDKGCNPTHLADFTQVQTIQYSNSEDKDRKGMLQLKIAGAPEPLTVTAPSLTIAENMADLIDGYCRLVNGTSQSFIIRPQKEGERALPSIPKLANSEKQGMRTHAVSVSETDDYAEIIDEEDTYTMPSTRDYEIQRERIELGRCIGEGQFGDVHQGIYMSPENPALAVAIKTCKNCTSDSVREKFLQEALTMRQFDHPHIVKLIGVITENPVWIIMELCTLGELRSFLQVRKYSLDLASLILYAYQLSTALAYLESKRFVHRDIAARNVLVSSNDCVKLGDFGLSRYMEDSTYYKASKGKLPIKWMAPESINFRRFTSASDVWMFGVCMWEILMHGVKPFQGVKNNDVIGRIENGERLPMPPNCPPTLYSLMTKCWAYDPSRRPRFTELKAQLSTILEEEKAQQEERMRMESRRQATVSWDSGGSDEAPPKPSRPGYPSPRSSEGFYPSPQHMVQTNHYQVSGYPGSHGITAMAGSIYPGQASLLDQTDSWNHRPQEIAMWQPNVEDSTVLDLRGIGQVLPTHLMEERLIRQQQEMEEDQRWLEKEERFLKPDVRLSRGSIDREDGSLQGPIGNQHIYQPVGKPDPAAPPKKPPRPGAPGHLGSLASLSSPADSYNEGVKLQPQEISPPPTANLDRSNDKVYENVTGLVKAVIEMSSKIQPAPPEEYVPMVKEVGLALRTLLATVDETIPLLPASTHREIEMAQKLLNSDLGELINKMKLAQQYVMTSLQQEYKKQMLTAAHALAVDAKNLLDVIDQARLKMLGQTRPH
T1 sequence (P11802 whole entry): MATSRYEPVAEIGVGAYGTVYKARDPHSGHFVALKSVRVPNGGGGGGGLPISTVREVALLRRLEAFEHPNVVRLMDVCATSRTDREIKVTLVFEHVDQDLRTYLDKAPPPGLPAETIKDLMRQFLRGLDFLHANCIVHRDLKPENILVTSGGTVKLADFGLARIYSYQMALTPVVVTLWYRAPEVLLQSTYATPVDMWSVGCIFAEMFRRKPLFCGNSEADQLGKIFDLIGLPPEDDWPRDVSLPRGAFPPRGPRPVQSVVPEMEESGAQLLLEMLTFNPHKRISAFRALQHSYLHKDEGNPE
T1 sequence (P24385 whole entry partner): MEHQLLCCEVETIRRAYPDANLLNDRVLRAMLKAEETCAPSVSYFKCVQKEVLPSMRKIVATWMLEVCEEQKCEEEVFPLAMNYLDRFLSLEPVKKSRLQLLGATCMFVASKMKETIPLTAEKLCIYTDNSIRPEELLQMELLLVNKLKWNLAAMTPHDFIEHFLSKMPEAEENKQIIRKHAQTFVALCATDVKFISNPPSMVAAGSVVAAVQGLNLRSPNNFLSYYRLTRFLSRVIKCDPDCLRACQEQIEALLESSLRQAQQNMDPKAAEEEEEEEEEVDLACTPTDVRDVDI

With `O=C(NCCN1CCCCC1)c1ccc(Nc2ncc(Br)c(Nc3ccccc3)n2)cc1` [Example 45], the IC50 on CDK4/Cyclin D1 is 235 nM. As to `CCCCN(CCCC)CCCNC(=O)c1ccc(Nc2ncc(Br)c(Nc3ccccc3)n2)cc1` [Example 47], in test [1], the IC50 is 97 nM. Same read-out and setting: for `O=C(c1ccc(Nc2ncc(Br)c(Nc3ccccc3)n2)cc1)N1CCC(N2CCCC2)CC1` [Example 52] the value was 814 nM.

Broadly, the IC50 is the concentration that inhibits the measured activity by half.
